Reference: patent US12391919B2, “Culture medium, coating matrix and method for maturing midbrain dopaminergic progenitor cells” (NUWACELL BIOTECHNOLOGIES CO., LTD., priority 2022, dated 2025)

Tested on: imDAPs
Test: Flow cytometry (FACS) analysis of FOXA2 expression in expanded imDAPs
Type: cell-based, human
Procedure: • 1. Individualize and collect cells by either Accutase or TrypLE treatment. • 2. Wash cells with 1 ml PBS and pellet cells at 250×g for 15 sec. • 3. Remove supernatant, add ˜200 μl of 4% PFA, mix and fix for 10 min at RT. • 4. Pellet cells at 350×g for 5 min. • 5. Wash cells by 1 ml of FACS buffer and pellet cells at 350×g for 5 min. • 6. Remove supernatant, add 200 μl/tube of FACS buffer/0.1% TritonX, mix for 10 min at RT. • 7. Wash cells by 1 ml of FACS buffer and pellet cells at 350×g for 5 min. • 8. Remove supernatant, add 200 μl/tube of primary antibody diluted in FACS buffer, mix gently, and incubate for 30 min at RT. • 9. Wash cells by 1 ml of FACS buffer and pellet cells at 350×g for 5 min. • 10. Remove supernatant, and add 200 μl of secondary antibody diluted in FACS buffer, mix gently, and incubate for 30 min at RT. • 11. Wash cells by 1 ml of FACS buffer and pellet cells at 300×g for 5 min. • 12. Remove supernatant, add 200 μl of FACS buffer, and run samples on the flow cytometry. (2) qRT-PCR • 1. For qRT-PCR analysis of mRNA gene expression, RNA should be harvested from at least 2×10^6 cells. • 2. Harvest cells, add 350 μl of buffer RLT+1% (vol/vol) s-mercaptoethanol to the well, transfer the lysate to a 1.5 ml tube, and put it immediately on ice. • 3. Perform RNA extraction using the Tiangen Kit (DP430), and follow the manufacturer's protocol ‘Purification of total RNA from animal and human cells’. • 4. When the RNA extraction was completed, determine the RNA concentration using a Nanodrop instrument. • 5. Perform the first-strand cDNA synthesis reaction with 1 μg of RNA using the HiScript TM II Q RT SuperMIX for qPCR(+gDNA wiper) Kit (Vazyme, #R223-01) for RT-qPCR. Follow the manufacturer's ‘First-Strand cDNA Synthesis’ protocol. This reaction would yield a 20 μl product. • 6. Dilute the 10 μl cDNA product in 80 μl of nuclease-free water. • 7. Pipette the diluted cDNA product (1 μl), Sybr green master mix (5 μl, Transgen, #AQ131) and 0.95 μM reverse/forward primer mix (4 μl) into a 384-well PCR plate in triplicate, either manually or using an automated pipetting robot. The complete primer panel included the target genes and the housekeeping gene (RPL13A). In the analysis, also included a sample of undifferentiated hPSCs to determine the gene expression levels relative to the expression in hPSCs. • 8. Analyze the samples by running a quantitative PCR on the LightCycler 480 instrument using a 40× cycle two-step protocol with a 60° C., 60 sec annealing/elongation step and a 95° C., 30 sec denaturation step. The average CT values from the three technical replicates were used for calculations of relative gene expression using the ΔΔCT method. For each gene, calculate the FC of the differentiated samples relative to the undifferentiated control sample using the housekeeping gene for normalization. Next, calculate the average of the FC values on the basis of the housekeeping gene. (3) Immunocytochemical Analysis • 1. Cell fixation: Remove the medium from the cells and wash with PBS. Add 4% (wt/vol) PFA (e.g., 200 μl to a well in a 48-well plate) and incubate at room temperature (RT) for 15 min. after incubation, wash the cells three times in PBS. • 2. Blocking: Remove PBS from the wells and add blocking solution to the cells, add enough volume to cover the cells. Leave the cells in blocking solution for 1 h at RT. • 3. Primary antibodies incubation: Remove the blocking solution from the cells and add the primary antibody solutions (˜100 μl/cm^2). […]

| Compound | expression of Foxa2 (percentage of Foxa2+ imDAPs) (Example 9, P1 cells compared with P0 cells, DLL4/VTN-coated, FIG. 5C) | FOXA2 expression (percentage of Foxa2+ imDAPs) (Example 8, VTN or DLL4/VTN coating, with or without SB431542, FIG. 4C) |
| --- | --- | --- |
| c1ccc2c(-c3cnn4cc(-c5ccc(N6CCNCC6)cc5)cnc34)ccnc2c1 [LDN193189] | slightly decreased the expression of FOXA2 for imDAPs | – |
| DLL4: Notch agonist used as second coating matrix | – | could improve FOXA2 expression |
